The record followed here is patent publication US20250011316A1, “PEROXIREDOXIN 3 INHIBITORS AND METHODS OF USE FOR TREATING CANCER” (Wake Forest University Health Sciences, priority 2022, published 2025).

Structures are written as SMILES. In brackets after ≈: the same amount, converted by molar mass. Where only a bound is given, the exact number is not on record here.

Usually EC50 stands for the concentration giving half of the maximal effect. Read a high EC50 as a less potent agent. The solubility is the dissolved amount per volume that the medium holds.

Data set [1] has as its system human SK—OV-3 ovarian cancer cells. Kind of data set: Cellular Activity Assay (cytotoxicity, crystal violet). To be noted: Homo sapiens; SK—OV-3 cells, treated for 48 hr, 0.1-100 μM, crystal violet absorbance at 540 nm. It counts as cell-based. An excerpt: (§1) To test the activity of compounds, two complimentary assays were used as described below. The Biochemical PRX3 Inhibition Assay tests the ability of each compound to crosslink PRX3 in a simple, in vitro system. In the Cellular Activity Assay, we are testing the ability of compounds to kill SK—OV-3 ovarian cancer cells.
The Cellular Activity Assay measures the EC50 of each compound in human SK—OV-3 ovarian cancer cells TS to be taken into the cell, transported to the mitochondria, and crosslink PRX3.
The cytotoxicity of compounds was measured as described in Nelson et al. (2021) Antioxidants (Basel) 10, 150; Cunniff et al. (2015) PloS one 10, e0127310; and Newick et al. (2012) PloS one 7, e39404. SK—OV-3 is an adherent, epithelial, adenocarcinoma cell line obtained from ATCC (ref #: HTB-77). SK—OV-3 cells are resistant to the commonly used chemotherapeutics, cis-platinum and doxorubicin. For this […], SK—OV-3 cells were plated in a 96-well plate. After 24 h recovery, the cells were treated for 48 hr with multiple concentrations of each compound ranging from 0.1-100 μM.
Cells were washed with PBS to remove dead cells and the remaining live cells were fixed with 3.0% formaldehyde and stained with 0.1% crystal violet. The amount of crystal violet was determined by reading the absorbance at 540 nm (crystal violet dye dissolved in 100% methanol) using a plate reader. The signal for crystal violet dye is proportional to the biomass of remaining live cells. GraphPad Prism9 software was used to calculate the effective inhibitory concentration (EC50) of test compounds. Results for each compound, are normalized to the amount of cells in control wells treated with the equivalent concentration of DMSO (negative control). TS or Compound 4 were included in each set of assays as a positive control.

The next data set addresses T1, purified human PRX3 (Homo sapiens, UniProt P30048).
T1 construct: made in house
T1 sequence (P30048 62-256): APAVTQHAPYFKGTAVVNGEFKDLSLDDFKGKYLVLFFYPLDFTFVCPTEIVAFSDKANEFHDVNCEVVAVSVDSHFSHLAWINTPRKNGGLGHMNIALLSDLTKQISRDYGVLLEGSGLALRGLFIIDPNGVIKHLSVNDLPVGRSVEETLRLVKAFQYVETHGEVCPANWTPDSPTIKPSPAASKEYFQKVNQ
Kind of data set: Biochemical PRX3 Inhibition Assay (non-reducible crosslink by SDS PAGE + single adduct by MALDI-TOF MS). To be noted: 100 μM PRX3 with TRX2/thioredoxin reductase/NADPH system and hydrogen peroxide, 1-2 hr at 37° C.
From the text: The compounds described herein generally react with two essential cysteine residues in the mitochondrial peroxidase PRX3, leading to the formation of a non-reducible, covalent crosslink of two PRX3 monomers. This crosslink inactivates PRX3. Increased PRX3 crosslink is associated with mitochondrial stress, increased cell death in cell models of malignant mesothelioma and is associated with decreased tumor volume in a mouse model. Cunniff et al. (2015) PloS one 10, e0127310.
as §1
This assay tests the ability of each compound to form a covalent adduct with PRX3. The assay is performed as described in Nelson et al. (2021) Antioxidants (Basel) 10, 150; and Cunniff et al. (2015) PloS one 10, e0127310, and follows the appearance of non-reducible PRX3 crosslinks by SDS PAGE gel electrophoresis and follows the appearance of single PRX3 adducts by mass spectrometry. For this assay, purified human PRX3, hydrogen peroxide (the PRX3 substrate) and all the components required to enable PRX3 to catalytically cycle (thioredoxin-thioredoxin reductase-NAPDH system) are included (details below).
The biochemical PRX3 Inhibition assay contains 100 μM PRX3, 50 μM human TRX2, 0.5 μM mouse thioredoxin reductase, and a NADPH regenerating system composed of 3.2 mM glucose 6-phosphate, 3.2 U/ml glucose 6-phosphate dehydrogenase and 0.4 mM NADPH. Samples are incubated for 1-2 hr at 37° C. with either 0.2 mM TS (positive control), compounds or an equivalent volume of DMSO (negative control). During this incubation, hydrogen peroxide is added to induce turnover of PRX3. Reactions are stopped by the addition of a buffer containing 100 mM dithiothreitol (to break disulfide bonds) and SDS (detergent to denature proteins). NADPH, Glucose 6-Phosphate, and glucose 6-phosphate dehydrogenase were purchased from Sigma Aldrich. PRX3, thioredoxin, and thioredoxin reductase were all purified to >98% purity in the Lowther laboratory according to protocols referenced in Nelson et al. (2021) Antioxidants (Basel) 10, 150; and Cunniff et al. (2015) PloS one 10, e0127310.
To measure the amount of PRX3 crosslink, proteins in the reaction were separated by SDS-polyacrylamide gel electrophoresis and stained for total protein using GelCode Blue (Life Technologies). The amount of unmodified PRX3 and TS-PRX3 crosslink was measured by densiometric analysis of the signal for the PRX3 band running at the MW of a PRX3 crosslink (˜46 kDa) compared to the PRX3 signal at the MW of the un-modified PRX3 (−23 kD).
To measure covalent adduct formation on a single PRX3 monomer, each reaction was exchanged into a mass spectrometry compatible buffer containing 40 mM ammonium citrate, pH 8.3 made in HPLC water. Sample was mixed 1:1 with a matrix solution containing 30 mg/mL sinapinic acid in 70% (vol/vol) acetonitrile, 0.2% formic acid and spotted to onto the sample plate. PRX3 mass was measured by MALDI-TOF MS analysis on a Bruker Daltonics MALDI-TOF MS spectrometer. Spectra were analyzed in FLEXAnalysis Software. The intensity of the reduced PRX3 peak (SH) and intensity of the analog adduct peak was determined and corrected for background signal at the adduct peak in the DMSO control. The fraction of single analog adduct in the monomer peak was determined by dividing the intensity of the adduct peak by the summed intensity of the SH and adduct peaks.

The next data set can be described thus: Solubility Assay (HPLC). The data set is classed as physicochemical. Particulars: HEPES/NaCl buffer, aqueous with cosolvent or surfactant or cyclodextrin, kinetic from dmso stock; 20 mM HEPES, 100 mM NaCl, pH 7.5, 18-24 hours at ambient temperature; read-out: Solubility. The method, then:
A 20 mM stock solution was made for each compound in DMSO. To measure solubility, 0.03-0.05 mL of the stock was added to 0.27 mL 20 mM HEPES, 100 mM NaCl, pH 7.5. The solution was mixed and rotated 18-24 hours at ambient temperature. The next day, solutions were centrifuged for 10 min at 20,000×g at […] to remove insoluble, solid material. Next, 100 μL of the supernatant containing the soluble compound was added to 900 μL DMSO and High Performance Liquid Chromatography was performed as described in Table 1 and either HIPLC gradient 1 (Table 2) or HIPLC gradient 2 (Table 3). For each analog, a 200 μM standard and a 20 μM standard were prepared and run in parallel (standards were dissolved completely in […]). The amount ofLcompound in the experimental sample was calculated by comparing the area under the curve for compound peak to the area for the closest standard and correcting for dilution.

In turn, `C=C(NC(=O)c1csc(-c2ccc(CNC(=O)COCCOC)cc2)n1)C(=O)NC(=C)C(=O)OC` [Compound 35, Methyl 2-(2-(2-(4-((2-(2-methoxyethoxy)acetamido)methyl)phenyl)thiazole-4-carboxamido)acrylamido)acrylate] yielded an EC50 in data set [1] of 1 to 10 µM. In addition, the “PRX3 Inhibition (Crosslink + Mono-adduct)” value (“PRX3 Inhibition” below) on purified human PRX3 is listed as “+++ (>90%)”. In “Solubility Assay (HPLC)”, the solubility fell in the range of 100 to 1000 µM (≈ 50.3 to 503 µg/mL).
The compound `C=C(NC(=O)c1csc(-c2ccc(CNC(=O)C3CCOCC3)cc2)n1)C(=O)NC(=C)C(=O)OC` [Compound 36, Methyl 2-(2-(2-(4-((tetrahydro-2H-pyran-4-carboxamido)methyl)phenyl)thiazole-4-carboxamido)acrylamido)acrylate] yielded an EC50 in data set [1] of 1 to 10 µM. Also, the “PRX3 Inhibition” value at purified human PRX3 is recorded as “+++ (>90%)”. Also, in “Solubility Assay (HPLC)”, the solubility was under 100 µM.
The like results for `C=C(NC(=O)c1csc(-c2ccc(CNC(=O)CCCCCCl)cc2)n1)C(=O)NC(=C)C(=O)OC` [Compound 37, Methyl 2-(2-(2-(4-((6-chlorohexanamido)methyl)phenyl)thiazole-4-carboxamido)acrylamido)acrylate] were, in that order, 1 to 10 µM, “+ (5-50%)” and under 100 µM.
Take `C=C(NC(=O)c1csc(-c2ccc(CNC(=O)CCNC(=O)OC(C)(C)C)cc2)n1)C(=O)NC(=C)C(=O)OC` [Compound 38, Methyl 2-(2-(2-(4-((3-((tert-butoxycarbonyl)amino)propanamido)methyl)phenyl)thiazole-4-carboxamido)acrylamido)acrylate]: the half-maximal effective concentration (EC50) in data set [1] lay within 1 to 10 µM. Also, at purified human PRX3, the “PRX3 Inhibition” value is “++ (50-90%)”. Besides, the solubility in “Solubility Assay (HPLC)” was under 100 µM.
The like results for `C=C(NC(=O)c1csc(-c2ccc(CNC(=O)CCCCCN=[N+]=[N-])cc2)n1)C(=O)NC(=C)C(=O)OC` [Compound 39, Methyl 2-(2-(2-(4-((6-azidohexanamido)methyl)phenyl)thiazole-4-carboxamido)acrylamido)acrylate] were, in that order, 1 to 10 µM, “++ (50-90%)” and under 100 µM.
The like results for `C=C(NC(=O)c1csc(N2CCC(CNC(=O)CCCCCCl)CC2)n1)C(=O)NC(=C)C(=O)OC` [Compound 40, Methyl 2-(2-(2-(4-((6-chlorohexanamido)methyl)piperidin-1-yl)thiazole-4-carboxamido)acrylamido)acrylate] were, in that order, 10 to 25 µM, “+++ (>90%)” and 100 to 1000 µM (≈ 52.6 to 526 µg/mL).
In the same order, the values of `C=C(NC(=O)c1csc(N2CCC(CNC(=O)COCCOC)CC2)n1)C(=O)NC(=C)C(=O)OC` [Compound 41, Methyl 2-(2-(2-(4-((2-(2-methoxyethoxy)acetamido)methyl)piperidin-1-yl)thiazole-4-carboxamido)acrylamido)acrylate] are 10 to 25 µM, “+++ (>90%)” and over 1000 µM.
As to `C=C(NC(=O)c1csc(-c2ccc(COC(=O)NCCCOC)cc2)n1)C(=O)NC(=C)C(=O)OC` [Compound 42, Methyl 2-(2-(2-(4-((((3-methoxypropyl)carbamoyl)oxy)methyl)phenyl)thiazole-4-carboxamido)acrylamido)acrylate], the EC50 in data set [1] was in the range of 1 to 10 µM. Also, the “PRX3 Inhibition” value on purified human PRX3 was “+++ (>90%)”. The solubility in the data set “Solubility Assay (HPLC)” was under 100 µM.
In the same order, the values of `C=C(NC(=O)c1csc(-c2cccc(CNC(=O)OC(C)(C)C)c2)n1)C(=O)NC(=C)C(=O)OC` [Compound 43, Methyl 2-(2-(2-(3-(((tert-butoxycarbonyl)amino)methyl)phenyl)thiazole-4-carboxamido)acrylamido)acrylate] are 1 to 10 µM, “+++ (>90%)” and under 100 µM.
With `C=C(NC(=O)c1csc(N2CCC(NC(=O)CC3CCOCC3)CC2)n1)C(=O)NC(=C)C(=O)OC` [Compound 51, Methyl 2-(2-(2-(4-(2-(tetrahydro-2H-pyran-4-yl)acetamido)piperidin-1-yl)thiazole-4-carboxamido)acrylamido)acrylate], the “PRX3 Inhibition” value at purified human PRX3 was “+++ (>90%)”. In addition, in “Solubility Assay (HPLC)”, the solubility was under 100 µM.
For `C=C(NC(=O)c1csc(N2CCC(NC(=O)C3COCCO3)CC2)n1)C(=O)NC(=C)C(=O)OC` (centres unmarked) [Compound 58, Methyl 2-(2-(2-(4-(1,4-dioxane-2-carboxamido)piperidin-1-yl)thiazole-4-carboxamido)acrylamido)acrylate], at purified human PRX3, the “PRX3 Inhibition” value is recorded as “+++ (>90%)”. Moreover, in “Solubility Assay (HPLC)”, the solubility was 100 to 1000 µM (≈ 49.4 to 494 µg/mL).
As to `C=C(NC(=O)c1csc(N2CCN(C(=O)C3CCOCC3)CC2)n1)C(=O)NC(=C)C(=O)OC` [Compound 59, Methyl 2-(2-(2-(4-(tetrahydro-2H-pyran-4-carbonyl)piperazin-1-yl)thiazole-4-carboxamido)acrylamido)acrylate], on purified human PRX3, the “PRX3 Inhibition” value was “+++ (>90%)”. The solubility in the data set “Solubility Assay (HPLC)” was in the range of 100 to 1000 µM (≈ 47.8 to 478 µg/mL).
`C=C(NC(=O)c1csc(N2CCN(C(=O)OC(C)(C)C)[C@H](C)C2)n1)C(=O)NC(=C)C(=O)OC` [Compound 60, Tert-butyl (R)-4-(4-((3-((3-methoxy-3-oxoprop-1-en-2-yl)amino)-3-oxoprop-1-en-2-yl)carbamoyl)thiazol-2-yl)-2-methylpiperazine-1-carboxylate]: the “PRX3 Inhibition” value at purified human PRX3 is “+++ (>90%)”. Besides, the solubility in “Solubility Assay (HPLC)” was under 100 µM.
